Test results published in ChEMBL document CHEMBL5653615 (J Biol Chem, 2013).
Active and inactive are the calls of the source. The rule behind the calls is not given here.

Legend:
[1] = biological target: T1, Serine/threonine-protein kinase 3 (Homo sapiens) (UniProt Q13188); assay: Inhibition of human STK3 at 1.82 nM by HotSpot assay relative to control
T1 sequence (whole entry): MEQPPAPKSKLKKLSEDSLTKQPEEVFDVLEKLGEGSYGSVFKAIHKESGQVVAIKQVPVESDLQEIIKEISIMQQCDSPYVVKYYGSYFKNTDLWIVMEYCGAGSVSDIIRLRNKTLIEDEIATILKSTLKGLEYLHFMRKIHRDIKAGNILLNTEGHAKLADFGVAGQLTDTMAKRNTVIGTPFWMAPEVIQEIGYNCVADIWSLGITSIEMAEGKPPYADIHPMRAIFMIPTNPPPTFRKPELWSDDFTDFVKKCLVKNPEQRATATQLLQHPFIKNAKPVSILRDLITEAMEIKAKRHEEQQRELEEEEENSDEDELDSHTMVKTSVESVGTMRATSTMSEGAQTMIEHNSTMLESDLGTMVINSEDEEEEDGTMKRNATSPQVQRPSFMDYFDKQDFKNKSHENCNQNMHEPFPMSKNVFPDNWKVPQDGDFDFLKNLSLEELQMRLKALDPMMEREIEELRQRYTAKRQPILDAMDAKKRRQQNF

[2] = biological target: Myosin light chain kinase 2, skeletal/cardiac muscle (Homo sapiens) (UniProt Q9H1R3); assay: Inhibition of human MYLK2 at 1.82 nM by HotSpot assay relative to control
Chain of Myosin light chain kinase 2, skeletal/cardiac muscle (Homo sapiens) (Q9H1R3 whole entry): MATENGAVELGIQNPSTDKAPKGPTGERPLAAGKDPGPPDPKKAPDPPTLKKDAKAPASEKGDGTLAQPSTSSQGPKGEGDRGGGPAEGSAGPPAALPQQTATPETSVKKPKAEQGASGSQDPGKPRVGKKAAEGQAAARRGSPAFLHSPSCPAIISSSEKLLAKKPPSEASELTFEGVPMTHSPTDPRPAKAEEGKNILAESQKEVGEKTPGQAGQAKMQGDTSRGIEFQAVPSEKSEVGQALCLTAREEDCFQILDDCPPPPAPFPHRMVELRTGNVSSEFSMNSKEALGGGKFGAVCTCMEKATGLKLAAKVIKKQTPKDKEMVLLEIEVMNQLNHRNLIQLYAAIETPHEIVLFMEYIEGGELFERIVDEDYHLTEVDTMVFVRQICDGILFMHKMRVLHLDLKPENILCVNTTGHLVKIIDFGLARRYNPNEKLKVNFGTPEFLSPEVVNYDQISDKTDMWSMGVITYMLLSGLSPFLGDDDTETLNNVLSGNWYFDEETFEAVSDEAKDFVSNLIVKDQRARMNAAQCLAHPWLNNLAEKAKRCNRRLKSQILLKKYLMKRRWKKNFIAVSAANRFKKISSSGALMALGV

[3] = biological target: Platelet-derived growth factor receptor beta (Homo sapiens) (UniProt P09619); assay: Inhibition of human PDGFRb at 1.82 nM by HotSpot assay relative to control
Chain of Platelet-derived growth factor receptor beta (Homo sapiens) (P09619 whole entry): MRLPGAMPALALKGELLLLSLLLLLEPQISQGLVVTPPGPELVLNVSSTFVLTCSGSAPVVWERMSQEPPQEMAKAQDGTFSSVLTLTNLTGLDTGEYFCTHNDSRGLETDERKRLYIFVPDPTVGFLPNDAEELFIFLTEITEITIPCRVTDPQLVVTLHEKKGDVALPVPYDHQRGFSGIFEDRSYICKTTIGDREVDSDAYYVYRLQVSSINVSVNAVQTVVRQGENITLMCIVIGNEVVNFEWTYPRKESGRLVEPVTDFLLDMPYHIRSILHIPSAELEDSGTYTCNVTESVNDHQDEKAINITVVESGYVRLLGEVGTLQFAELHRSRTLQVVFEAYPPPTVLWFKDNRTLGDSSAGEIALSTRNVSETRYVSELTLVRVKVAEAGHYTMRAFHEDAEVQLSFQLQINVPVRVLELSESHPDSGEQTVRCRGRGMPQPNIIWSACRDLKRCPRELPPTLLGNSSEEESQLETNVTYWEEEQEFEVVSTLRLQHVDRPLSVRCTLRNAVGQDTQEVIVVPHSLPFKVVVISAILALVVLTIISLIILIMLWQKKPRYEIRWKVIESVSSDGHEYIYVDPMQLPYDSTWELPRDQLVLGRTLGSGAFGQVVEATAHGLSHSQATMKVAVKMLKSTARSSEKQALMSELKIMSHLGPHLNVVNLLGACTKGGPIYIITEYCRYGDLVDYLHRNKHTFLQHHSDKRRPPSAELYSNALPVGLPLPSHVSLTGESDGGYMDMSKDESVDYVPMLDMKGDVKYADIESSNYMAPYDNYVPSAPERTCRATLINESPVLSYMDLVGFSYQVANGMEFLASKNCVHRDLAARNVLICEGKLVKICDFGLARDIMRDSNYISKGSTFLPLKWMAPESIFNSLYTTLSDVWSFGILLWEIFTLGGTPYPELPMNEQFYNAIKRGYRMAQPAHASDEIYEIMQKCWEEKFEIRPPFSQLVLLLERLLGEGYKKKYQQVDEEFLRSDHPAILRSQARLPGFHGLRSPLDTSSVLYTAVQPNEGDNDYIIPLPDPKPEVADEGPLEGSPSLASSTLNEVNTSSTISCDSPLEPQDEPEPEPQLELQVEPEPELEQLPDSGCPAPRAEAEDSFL

[4] = biological target: Serine/threonine-protein kinase 25 (Homo sapiens) (UniProt O00506); assay: Inhibition of human YSK1 at 1.82 nM by HotSpot assay relative to control
Chain of Serine/threonine-protein kinase 25 (Homo sapiens) (O00506 whole entry, looked up): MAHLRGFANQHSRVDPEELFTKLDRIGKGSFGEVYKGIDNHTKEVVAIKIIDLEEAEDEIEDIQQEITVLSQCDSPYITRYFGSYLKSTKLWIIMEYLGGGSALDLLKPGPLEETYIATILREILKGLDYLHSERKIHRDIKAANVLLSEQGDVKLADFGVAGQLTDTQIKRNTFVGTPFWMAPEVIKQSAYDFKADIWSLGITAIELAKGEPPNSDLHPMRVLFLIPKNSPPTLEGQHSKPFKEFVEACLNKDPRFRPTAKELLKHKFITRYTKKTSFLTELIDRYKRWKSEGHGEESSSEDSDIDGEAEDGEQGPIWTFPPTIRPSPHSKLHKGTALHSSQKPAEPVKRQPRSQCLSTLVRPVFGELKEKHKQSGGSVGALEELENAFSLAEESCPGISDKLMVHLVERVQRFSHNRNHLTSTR

[5] = biological target: T2, Serine/threonine-protein kinase ULK2 (Homo sapiens) (UniProt Q8IYT8); assay: Inhibition of human ULK2 at 1.82 nM by HotSpot assay relative to control
T2 sequence (whole entry): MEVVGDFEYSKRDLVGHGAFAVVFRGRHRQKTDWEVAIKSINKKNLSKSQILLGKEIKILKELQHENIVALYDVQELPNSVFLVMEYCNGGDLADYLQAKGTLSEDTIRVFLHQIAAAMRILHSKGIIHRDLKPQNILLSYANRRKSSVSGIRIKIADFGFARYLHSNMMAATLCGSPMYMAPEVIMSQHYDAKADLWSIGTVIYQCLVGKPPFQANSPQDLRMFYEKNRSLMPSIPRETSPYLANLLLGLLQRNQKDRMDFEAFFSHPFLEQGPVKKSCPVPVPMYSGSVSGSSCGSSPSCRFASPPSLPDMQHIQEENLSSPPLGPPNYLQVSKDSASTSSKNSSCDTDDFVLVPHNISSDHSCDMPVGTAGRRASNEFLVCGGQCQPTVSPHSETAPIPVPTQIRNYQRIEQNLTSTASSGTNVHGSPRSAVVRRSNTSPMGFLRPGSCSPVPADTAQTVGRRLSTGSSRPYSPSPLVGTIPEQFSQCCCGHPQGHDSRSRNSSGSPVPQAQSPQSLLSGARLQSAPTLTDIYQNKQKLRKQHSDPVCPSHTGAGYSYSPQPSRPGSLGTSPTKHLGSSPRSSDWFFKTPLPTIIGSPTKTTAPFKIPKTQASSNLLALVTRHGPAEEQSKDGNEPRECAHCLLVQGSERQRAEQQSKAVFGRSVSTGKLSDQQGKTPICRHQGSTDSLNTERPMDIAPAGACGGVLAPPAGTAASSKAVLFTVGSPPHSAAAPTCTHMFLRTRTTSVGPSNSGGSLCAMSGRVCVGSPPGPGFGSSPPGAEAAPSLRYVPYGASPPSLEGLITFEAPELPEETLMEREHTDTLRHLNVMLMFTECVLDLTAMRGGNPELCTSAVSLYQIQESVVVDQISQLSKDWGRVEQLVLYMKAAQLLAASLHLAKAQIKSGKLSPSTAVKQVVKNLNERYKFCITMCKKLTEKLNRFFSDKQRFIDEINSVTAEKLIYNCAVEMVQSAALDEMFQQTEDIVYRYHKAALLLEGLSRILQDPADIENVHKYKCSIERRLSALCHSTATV

[6] = biological target: T3, Serine/threonine-protein kinase Sgk1 (Homo sapiens) (UniProt O00141); assay: Inhibition of human SGK1 at 18.6 nM by HotSpot assay relative to control
T3 sequence (whole entry): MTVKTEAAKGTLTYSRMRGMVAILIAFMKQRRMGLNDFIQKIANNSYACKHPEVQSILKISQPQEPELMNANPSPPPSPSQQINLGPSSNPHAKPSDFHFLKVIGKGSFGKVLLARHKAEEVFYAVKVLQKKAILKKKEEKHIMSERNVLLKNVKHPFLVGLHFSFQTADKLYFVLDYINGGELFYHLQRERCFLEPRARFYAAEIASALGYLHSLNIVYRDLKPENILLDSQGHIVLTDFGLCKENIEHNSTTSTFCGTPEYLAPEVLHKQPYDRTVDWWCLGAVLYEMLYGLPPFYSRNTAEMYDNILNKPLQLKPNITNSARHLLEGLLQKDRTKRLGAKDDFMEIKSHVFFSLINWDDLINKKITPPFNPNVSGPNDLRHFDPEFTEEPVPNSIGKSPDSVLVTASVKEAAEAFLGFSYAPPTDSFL

[7] = biological target: Serine/threonine-protein kinase MARK2 (Homo sapiens) (UniProt Q7KZI7); assay: Inhibition of human PAR-1Ba at 18.6 nM by HotSpot assay relative to control
Chain of Serine/threonine-protein kinase MARK2 (Homo sapiens) (Q7KZI7 whole entry): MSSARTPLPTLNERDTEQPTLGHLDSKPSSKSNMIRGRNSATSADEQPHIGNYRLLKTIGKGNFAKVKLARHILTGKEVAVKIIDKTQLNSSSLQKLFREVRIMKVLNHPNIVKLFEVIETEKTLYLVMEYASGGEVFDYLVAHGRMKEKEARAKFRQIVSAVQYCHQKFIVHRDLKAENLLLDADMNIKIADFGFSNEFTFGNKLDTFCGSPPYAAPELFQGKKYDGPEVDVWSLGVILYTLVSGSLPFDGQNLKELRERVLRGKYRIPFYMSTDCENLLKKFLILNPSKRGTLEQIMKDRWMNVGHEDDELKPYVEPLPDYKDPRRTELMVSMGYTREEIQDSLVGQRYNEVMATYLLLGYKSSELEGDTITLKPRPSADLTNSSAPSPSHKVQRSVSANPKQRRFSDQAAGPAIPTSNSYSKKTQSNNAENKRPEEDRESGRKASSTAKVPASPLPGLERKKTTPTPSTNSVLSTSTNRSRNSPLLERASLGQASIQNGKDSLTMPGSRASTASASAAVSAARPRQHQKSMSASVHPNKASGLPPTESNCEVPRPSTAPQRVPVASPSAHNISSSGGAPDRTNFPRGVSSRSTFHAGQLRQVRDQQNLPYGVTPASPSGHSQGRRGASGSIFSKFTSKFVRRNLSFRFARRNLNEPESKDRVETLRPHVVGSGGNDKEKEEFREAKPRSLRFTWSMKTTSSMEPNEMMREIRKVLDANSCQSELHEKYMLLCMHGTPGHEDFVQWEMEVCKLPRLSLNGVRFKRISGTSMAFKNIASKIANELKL

[8] = biological target: T4, Serine/threonine-protein kinase Nek2 (Homo sapiens) (UniProt P51955); assay: Inhibition of human NEK2 at 18.6 nM by HotSpot assay relative to control
T4 sequence (whole entry): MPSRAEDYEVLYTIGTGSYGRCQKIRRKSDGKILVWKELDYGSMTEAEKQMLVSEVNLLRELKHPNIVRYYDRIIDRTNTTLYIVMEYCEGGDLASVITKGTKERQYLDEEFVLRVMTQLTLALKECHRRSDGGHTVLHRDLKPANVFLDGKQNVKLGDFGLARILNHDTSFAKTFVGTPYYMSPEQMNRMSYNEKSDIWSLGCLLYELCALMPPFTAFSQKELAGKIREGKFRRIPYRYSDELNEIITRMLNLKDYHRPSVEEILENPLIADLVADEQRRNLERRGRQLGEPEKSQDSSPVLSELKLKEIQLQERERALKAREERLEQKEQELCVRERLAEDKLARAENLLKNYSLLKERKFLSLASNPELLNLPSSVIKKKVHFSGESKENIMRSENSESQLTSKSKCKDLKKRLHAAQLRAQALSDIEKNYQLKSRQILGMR

[9] = biological target: RAC-beta serine/threonine-protein kinase (Homo sapiens) (UniProt P31751); assay: Inhibition of human AKT2 at 18.6 nM by HotSpot assay relative to control
Chain of RAC-beta serine/threonine-protein kinase (Homo sapiens) (P31751 whole entry): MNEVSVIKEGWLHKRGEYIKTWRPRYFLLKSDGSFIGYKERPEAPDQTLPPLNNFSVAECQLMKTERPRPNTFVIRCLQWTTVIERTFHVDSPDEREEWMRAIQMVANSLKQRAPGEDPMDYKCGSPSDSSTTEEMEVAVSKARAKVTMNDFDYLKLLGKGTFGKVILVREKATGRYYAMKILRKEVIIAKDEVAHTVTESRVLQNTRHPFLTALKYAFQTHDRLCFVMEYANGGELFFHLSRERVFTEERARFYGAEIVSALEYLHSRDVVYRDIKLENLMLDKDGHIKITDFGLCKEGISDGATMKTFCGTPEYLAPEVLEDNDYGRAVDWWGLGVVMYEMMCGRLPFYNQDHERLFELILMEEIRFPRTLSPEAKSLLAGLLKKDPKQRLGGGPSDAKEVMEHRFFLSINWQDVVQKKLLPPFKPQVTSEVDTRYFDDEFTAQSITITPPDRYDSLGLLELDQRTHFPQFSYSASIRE

[10] = biological target: Insulin receptor (Homo sapiens) (UniProt P06213); assay: Inhibition of wild-type human Insulin receptor transfected in CHO-K1 cell lysate assessed as decrease in tyrosine phosphorylation at 10 uM for 30 mins on ice followed by insulin stimulation for 10 mins by Western blot analysis; assay type: subcellular; settings: time 40.0 min
Chain of Insulin receptor (Homo sapiens) (P06213 28-758 limits assumed): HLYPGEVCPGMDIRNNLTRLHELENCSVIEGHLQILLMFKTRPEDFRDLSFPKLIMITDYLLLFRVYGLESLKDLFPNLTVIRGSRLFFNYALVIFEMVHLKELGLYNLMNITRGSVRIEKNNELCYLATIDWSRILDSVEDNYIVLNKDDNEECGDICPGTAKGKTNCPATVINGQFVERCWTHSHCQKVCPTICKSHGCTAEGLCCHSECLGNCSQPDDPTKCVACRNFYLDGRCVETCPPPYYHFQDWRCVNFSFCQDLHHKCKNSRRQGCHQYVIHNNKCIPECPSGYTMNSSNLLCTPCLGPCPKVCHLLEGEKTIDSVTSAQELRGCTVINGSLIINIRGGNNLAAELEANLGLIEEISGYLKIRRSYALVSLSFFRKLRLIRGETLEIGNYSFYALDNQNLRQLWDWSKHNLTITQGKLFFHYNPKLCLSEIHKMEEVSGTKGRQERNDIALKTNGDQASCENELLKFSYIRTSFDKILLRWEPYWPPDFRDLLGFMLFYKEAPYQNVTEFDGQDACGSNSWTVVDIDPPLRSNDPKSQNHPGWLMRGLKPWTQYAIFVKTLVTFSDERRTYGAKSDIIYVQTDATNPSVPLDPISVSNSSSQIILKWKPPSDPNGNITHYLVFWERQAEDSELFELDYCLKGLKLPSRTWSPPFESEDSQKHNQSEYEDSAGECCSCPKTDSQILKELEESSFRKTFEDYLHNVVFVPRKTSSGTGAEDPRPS
Chain of Insulin receptor (Homo sapiens) (P06213 763-1382 limits assumed): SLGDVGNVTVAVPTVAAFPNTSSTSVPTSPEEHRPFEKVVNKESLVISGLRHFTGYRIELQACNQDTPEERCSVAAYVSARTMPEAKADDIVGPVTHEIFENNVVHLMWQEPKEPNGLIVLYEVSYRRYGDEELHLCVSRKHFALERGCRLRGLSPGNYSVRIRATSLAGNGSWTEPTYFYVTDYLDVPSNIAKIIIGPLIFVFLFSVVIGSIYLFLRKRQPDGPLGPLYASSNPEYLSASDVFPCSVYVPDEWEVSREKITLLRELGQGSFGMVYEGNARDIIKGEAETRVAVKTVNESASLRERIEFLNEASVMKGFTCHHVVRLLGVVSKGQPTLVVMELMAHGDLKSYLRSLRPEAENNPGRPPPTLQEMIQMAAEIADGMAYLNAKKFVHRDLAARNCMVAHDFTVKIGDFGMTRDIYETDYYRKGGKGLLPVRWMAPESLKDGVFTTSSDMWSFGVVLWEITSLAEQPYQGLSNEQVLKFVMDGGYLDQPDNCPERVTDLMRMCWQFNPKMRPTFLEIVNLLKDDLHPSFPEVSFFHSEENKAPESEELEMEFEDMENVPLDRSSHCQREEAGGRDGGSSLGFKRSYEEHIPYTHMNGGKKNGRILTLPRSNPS

For `C[C@@]1(C(=O)Nc2ccc(F)nc2)CCCN1c1nc(Nc2cc(C3CC3)n[nH]2)c2cccn2n1`, the inhibition [1] was 1.56%, the inhibition [2] was -4.22% and the inhibition [3] was 10.8%. The inhibition [4] was 5.25% and the inhibition [5] was -7.91%.

For `C[C@]1(O)C[C@@H](c2nc(-c3ccc4ccc(-c5ccccc5)nc4c3)c3c(N)nccn32)C1`, the inhibition [6] was 3.48%, the inhibition [7] was -3.78% and the inhibition [8] was 4.82%. For the same compound, the inhibition [9] was 0.3%.

With `Oc1n[nH]c2nnc(-c3c(-c4ccccc4)nn4ccccc34)cc12` the inhibition [10] was “Active”.
